In DBAASP:
In brackets after ≈: the same amount, converted by molar mass. Several values for one entry are separate records, joined by “and”; a condition that tells them apart may be missing. Identical values can stand only once. Values belong to the compound of their own block, whether it stands above or below them.

Tests used:
Experiment in all cases: ≥ marks a high value that may be exact or a test limit, other limits are often not marked, values filed in µg/mL are converted to µM
Acinetobacter baumannii = test system: Acinetobacter baumannii
[1] = test system: Escherichia coli ATCC 25922
Escherichia coli K88 = test system: Escherichia coli K88
Escherichia coli K99 = test system: Escherichia coli K99
Escherichia coli UB1005 = test system: Escherichia coli UB1005
Escherichia coli = test system: Escherichia coli
Klebsiella pneumoniae = test system: Klebsiella pneumoniae
[2] = test system: Pseudomonas aeruginosa ATCC 27853
[3] = test system: Pseudomonas aeruginosa CICC 21625
[4] = test system: Pseudomonas aeruginosa CICC 21630
[5] = test system: Pseudomonas aeruginosa PAO1
Pseudomonas aeruginosa = test system: Pseudomonas aeruginosa
[6] = test system: Salmonella enterica subsp. enterica serovar Pullorum C79-13
[7] = test system: Salmonella enterica subsp. enterica serovar Typhimurium ATCC 14028
[8] = test system: Salmonella enterica subsp. enterica serovar Typhimurium C77-31
[9] = test system: Escherichia coli BL21(DE3)
[10] = test system: Klebsiella pneumoniae ATCC 13883
[11] = test system: Aspergillus flavus KCTC 6905
[12] = test system: Candida albicans CCARM 14001
[13] = test system: Candida albicans CCARM 14004
[14] = test system: Candida albicans CCARM 14007
[15] = test system: Candida albicans CCARM 14020
[16] = test system: Candida albicans KCTC 7270
[17] = test system: Candida krusei CCARM 14017
[18] = test system: Candida parapsilosis CCARM 14016
[19] = test system: Colletotrichum gloeosporioides KCTC 6169
[20] = test system: Fusarium graminearum KCTC 16656
[21] = test system: Fusarium oxysporum KCTC 16909
[22] = test system: Fusarium solani KCTC 6326
[23] = test system: Fusarium verticillioides KCTC 6149
[24] = test system: Trichoderma virens KCTC 16924
[25] = test system: Trichoderma viride KCTC 16992
[26] = test system: Trichophyton rubrum KCTC 6345
[27] = test system: Escherichia coli KpC+001812446
[28] = test system: Klebsiella pneumoniae KpC+001825971
[29] = test system: Staphylococcus aureus ATCC 25923
[30] = test system: Candida albicans NCYC 1467
[31] = test system: Escherichia coli NCTC 10418
[32] = test system: Staphylococcus aureus ATCC 12493
[33] = test system: Staphylococcus aureus NCTC 10788
Escherichia coli C600 = test system: Escherichia coli C600
[34] = test system: Staphylococcus aureus 209P

MIC (Acinetobacter baumannii): 4 µM (≈ 11.6 µg/mL)
MIC [1]: 2 µM (≈ 5.79 µg/mL)
MIC (Escherichia coli K88): 1 µM (≈ 2.89 µg/mL)
MIC (Escherichia coli K99): 2 µM (≈ 5.79 µg/mL)
MIC (Escherichia coli UB1005): 2 µM (≈ 5.79 µg/mL)
MIC (Escherichia coli): 2 µM (≈ 5.79 µg/mL)
MIC (Klebsiella pneumoniae): 16 µM (≈ 46.3 µg/mL)
MIC [2]: 8 µM (≈ 23.2 µg/mL)
MIC [3]: ≥ 64 µM
MIC [4]: ≥ 64 µM
MIC [5]: 8 µM (≈ 23.2 µg/mL)
MIC (Pseudomonas aeruginosa): > 64 µM
MIC [6]: 4 µM (≈ 11.6 µg/mL)
MIC [7]: 4 µM (≈ 11.6 µg/mL)
MIC [8]: 4 µM (≈ 11.6 µg/mL)
Structure (SMILES): CC[C@H](C)[C@H](N)C(=O)N[C@@H](CCCN=C(N)N)C(=O)N1CCC[C@H]1C(=O)N[C@H](C(=O)N[C@H](C(=O)N[C@@H](CCCN=C(N)N)C(=O)N1CCC[C@H]1C(=O)N[C@H](C(=O)N[C@H](C(=O)N[C@@H](CCCN=C(N)N)C(=O)N1CCC[C@H]1C(=O)N[C@H](C(=O)N[C@H](C(=O)N[C@@H](CCCN=C(N)N)C(=O)N1CCC[C@H]1C(=O)N[C@H](C(=O)N[C@H](C(=O)N[C@@H](CCCN=C(N)N)C(=O)N1CCC[C@H]1C(=O)N[C@H](C(=O)N[C@H](C(=O)N[C@@H](CCCN=C(N)N)C(=O)N1CCC[C@H]1C(=O)N[C@H](C(N)=O)[C@@H](C)CC)[C@@H](C)CC)[C@@H](C)CC)[C@@H](C)CC)[C@@H](C)CC)[C@@H](C)CC)[C@@H](C)CC)[C@@H](C)CC)[C@@H](C)CC)[C@@H](C)CC)[C@@H](C)CC [IRPIIRPIIRPIIRPIIRPIIRPI]

MIC [9]: 8 µM and 4 µM
MIC [10]: 4 µM (≈ 6.65 µg/mL)
Structure (SMILES): CC[C@H](C)[C@H](NC(=O)[C@H](CC(C)C)NC(=O)[C@H](CCCN=C(N)N)NC(=O)[C@@H](N)CCCN=C(N)N)C(=O)N[C@@H](CCCN=C(N)N)C(=O)N[C@@H](CC(C)C)C(=O)N[C@@H](Cc1c[nH]c2ccccc12)C(=O)N[C@@H](CC(C)C)C(=O)N[C@@H](CCCN=C(N)N)C(=O)N[C@@H](CC(C)C)C(=O)N[C@@H](CC(C)C)C(=O)N[C@@H](CCCN=C(N)N)C(N)=O [RRLIRLWLRLLR]

MIC [11]: ≥ 256 µM
MIC [12]: ≥ 1020 µM
MIC [13]: ≥ 1020 µM
MIC [14]: ≥ 1020 µM
MIC [15]: ≥ 1020 µM
MIC [16]: ≥ 1020 µM
MIC [17]: ≥ 512 µM
MIC [18]: ≥ 1020 µM
MIC [19]: ≥ 1020 µM
MIC [20]: ≥ 512 µM
MIC [21]: ≥ 256 µM
MIC [22]: ≥ 256 µM
MIC [23]: ≥ 256 µM
MIC [24]: ≥ 512 µM
MIC [25]: ≥ 256 µM
MIC [26]: ≥ 512 µM
Structure (SMILES): NCCCC[C@H](NC(=O)[C@H](CCCCN)NC(=O)[C@@H](N)Cc1cnc[nH]1)C(N)=O [HKK]

MIC (Escherichia coli C600): 1.56 µM (≈ 3.6 µg/mL)
MIC [5]: 6.25 µM (≈ 14.4 µg/mL)
MIC [34]: 1.56 µM (≈ 3.6 µg/mL)
Structure (SMILES): CC(C)[C@@H]1NC(=O)[C@H](CCCN=C(N)N)NC(=O)[C@H](Cc2ccccc2)NC(=O)[C@@H](NC(=O)[C@H](Cc2c[nH]c3ccccc23)NC(=O)[C@@H](N)CCCCN)CSSC[C@@H](C(=O)N[C@@H](CCCN=C(N)N)C(=O)O)NC(=O)[C@H](CCCN=C(N)N)NC(=O)[C@H](CCCN=C(N)N)NC(=O)[C@H](Cc2ccc(O)cc2)NC(=O)[C@@H]2CSSC[C@H](NC1=O)C(=O)N[C@@H](Cc1ccc(O)cc1)C(=O)N[C@@H](CCCN=C(N)N)C(=O)NCC(=O)N[C@@H](CCCN=C(N)N)C(=O)N2 [KWCFRVCYRGRCYRRCR]

Second part, the compound before the results:

Structure (SMILES): NCCCC[C@H](NC(=O)[C@H](CCCCN)NC(=O)[C@H](Cc1cnc[nH]1)NC(=O)[C@H](CCCCN)NC(=O)[C@H](CCCCN)NC(=O)[C@H](Cc1cnc[nH]1)NC(=O)[C@H](CCCCN)NC(=O)[C@H](CCCCN)NC(=O)[C@H](Cc1cnc[nH]1)NC(=O)[C@H](CCCCN)NC(=O)[C@H](CCCCN)NC(=O)[C@@H](N)Cc1cnc[nH]1)C(N)=O [HKKHKKHKKHKK]
MIC [11]: 8 µM (≈ 12.7 µg/mL)
MIC [12]: ≥ 32 µM
MIC [13]: ≥ 32 µM
MIC [14]: ≥ 32 µM
MIC [15]: ≥ 32 µM
MIC [16]: ≥ 32 µM
MIC [17]: 4 µM (≈ 6.36 µg/mL)
MIC [18]: ≥ 32 µM
MIC [19]: 2 µM (≈ 3.18 µg/mL)
MIC [20]: 16 µM (≈ 25.5 µg/mL)
MIC [21]: 4 µM (≈ 6.36 µg/mL)
MIC [22]: 4 µM (≈ 6.36 µg/mL)
MIC [23]: 4 µM (≈ 6.36 µg/mL)
MIC [24]: 16 µM (≈ 25.5 µg/mL)
MIC [25]: 4 µM (≈ 6.36 µg/mL)
MIC [26]: 16 µM (≈ 25.5 µg/mL)

Structure (SMILES): CC[C@H](C)[C@H](NC(=O)[C@H](CCCCN)NC(=O)[C@H](CCCCN)NC(=O)[C@H](CC(C)C)NC(=O)[C@H](CO)NC(=O)CNC(=O)[C@H](CO)NC(=O)CNC(=O)[C@H](CO)NC(=O)CNC(=O)[C@H](CO)NC(=O)CN)C(=O)N[C@@H](Cc1ccccc1)C(=O)N[C@@H](CCCCN)C(=O)N[C@@H](CCCCN)C(=O)N1CCC[C@H]1C(=O)N[C@@H](CCSC)C(=O)N[C@H](C(=O)N[C@H](C(=O)NCC(=O)N[C@H](C(=O)N[C@H](C(=O)N[C@H](C(=O)N1CCC[C@H]1C(=O)N[C@@H](Cc1ccccc1)C(N)=O)[C@@H](C)CC)[C@@H](C)O)C(C)C)[C@@H](C)CC)C(C)C [GSGSGSGSLKKIFKKPMVIGVTIPF]
MIC [1]: 0.789 µM (≈ 2 µg/mL)
MIC [27]: 0.789 µM (≈ 2 µg/mL)
MIC [10]: 0.789 µM (≈ 2 µg/mL)
MIC [28]: 6.31 µM (≈ 16 µg/mL)
MIC [29]: 25.2 µM (≈ 64 µg/mL)

Structure (SMILES): CC[C@H](C)[C@@H]1NC(=O)[C@H](CO)NC(=O)[C@H](CCCCN)NC(=O)[C@H]([C@@H](C)O)NC(=O)[C@H](Cc2c[nH]c3ccccc23)NC(=O)[C@@H](NC(=O)CNC(=O)[C@H](CCCN=C(N)N)NC(=O)[C@H](CC(C)C)NC(=O)[C@H](C)N)CSSC[C@@H](C(=O)N2CCC[C@H]2C(N)=O)NC(=O)[C@@H]2CCCN2C(=O)[C@H](CCCCN)NC(=O)[C@@H]2CCCN2C(=O)[C@@H]2CCCN2C1=O [ALRGCWTKSIPPKPCP]
MIC [30]: ≥ 512 µM
MIC [31]: ≥ 128 µM
MIC [2]: > 512 µM
MIC [32]: ≥ 512 µM
MIC [33]: ≥ 128 µM
